Test results published in ChEMBL document CHEMBL4219180, “Dibenzofuran, dibenzothiophene and N-methyl carbazole tethered 2-aminothiazoles and their cinnamamides as potent inhibitors of Mycobacterium tuberculosis” (Bioorg Med Chem Lett, 2018).
Converted amounts (≈) assume the structure as drawn.

Experiments:
[1] = test system: Mycobacterium tuberculosis; test: Antimycobacterial activity against Mycobacterium tuberculosis; format: functional
[2] = test system: Mycobacterium tuberculosis; test: Antimycobacterial activity against Mycobacterium tuberculosis H37Rv ATCC 27294 after 28 days by agar dilution method; format: functional; conditions: H37Rv ATCC 27294, 672 h
[3] = Growth inhibition of HEK293T cells at 50 ug/ml after 72 hrs by MTT assay; format: cell-based, HEK-293T; conditions: human, read-out: GI

CC(=O)C1=C(O)C=C2Oc3c(C(C)=O)c(O)c(C)c(O)c3C2(C)C1=O (stereo not given)
MIC [1]: 12.5 µg/mL (≈ 36.3 µM)

O=C(/C=C/c1ccc(Br)cc1)Nc1nc(-c2ccc3sc4ccccc4c3c2)cs1
MIC [2]: 6.25 µg/mL (≈ 12.7 µM) | inhibition at 72 h, 50 ug/ml [3]: 28.3%

CC(C)c1ccc(/C=C/C(=O)Nc2nc(-c3ccc4c(c3)c3ccccc3n4C)cs2)cc1
MIC [2]: 50 µg/mL (≈ 111 µM) | inhibition at 72 h, 50 ug/ml [3]: 62%

O=C(/C=C/c1ccc(F)cc1)Nc1nc(-c2ccc3sc4ccccc4c3c2)cs1
MIC [2]: 0.78 µg/mL (≈ 1.81 µM) | inhibition at 72 h, 50 ug/ml [3]: 57.2%

CC(C)c1ccc(/C=C/C(=O)Nc2nc(-c3ccc4oc5ccccc5c4c3)cs2)cc1
MIC [2]: 6.25 µg/mL (≈ 14.3 µM) | inhibition at 72 h, 50 ug/ml [3]: 42.2%

CC(C)c1ccc(/C=C/C(=O)Nc2nc(-c3ccc4sc5ccccc5c4c3)cs2)cc1
MIC [2]: 0.78 µg/mL (≈ 1.72 µM) | inhibition at 72 h, 50 ug/ml [3]: 43.1%

Cc1ccc(/C=C/C(=O)Nc2nc(-c3ccc4c(c3)c3ccccc3n4C)cs2)cc1
MIC [2]: 25 µg/mL (≈ 59 µM) | inhibition at 72 h, 50 ug/ml [3]: 19.4%

Cn1c2ccccc2c2cc(-c3csc(NC(=O)/C=C/c4ccc(F)cc4)n3)ccc21
MIC [2]: 50 µg/mL (≈ 117 µM) | inhibition at 72 h, 50 ug/ml [3]: 23.8%

Cc1ccc(/C=C/C(=O)Nc2nc(-c3ccc4oc5ccccc5c4c3)cs2)cc1
MIC [2]: 50 µg/mL (≈ 122 µM) | inhibition at 72 h, 50 ug/ml [3]: 51.3%

Cc1ccc(/C=C/C(=O)Nc2nc(-c3ccc4sc5ccccc5c4c3)cs2)cc1
MIC [2]: 50 µg/mL (≈ 117 µM) | inhibition at 72 h, 50 ug/ml [3]: 48%

Cn1c2ccccc2c2cc(-c3csc(NC(=O)/C=C/c4ccccc4)n3)ccc21
MIC [2]: 50 µg/mL (≈ 122 µM) | inhibition at 72 h, 50 ug/ml [3]: 14.3%

Cn1c2ccccc2c2cc(-c3csc(N)n3)ccc21
MIC [2]: 12.5 µg/mL (≈ 44.7 µM) | inhibition at 72 h, 50 ug/ml [3]: 38.1%

Nc1nc(-c2ccc3sc4ccccc4c3c2)cs1
MIC [2]: 1.56 µg/mL (≈ 5.52 µM) | inhibition at 72 h, 50 ug/ml [3]: 56.7%

O=C(/C=C/c1ccc(F)cc1)Nc1nc(-c2ccc3oc4ccccc4c3c2)cs1
MIC [2]: 50 µg/mL (≈ 121 µM) | inhibition at 72 h, 50 ug/ml [3]: 36.8%

Cn1c2ccccc2c2cc(-c3csc(NC(=O)/C=C/c4ccc(Br)cc4)n3)ccc21
MIC [2]: 0.78 µg/mL (≈ 1.6 µM) | inhibition at 72 h, 50 ug/ml [3]: 12.1%

O=C(/C=C/c1ccccc1)Nc1nc(-c2ccc3oc4ccccc4c3c2)cs1
MIC [2]: 50 µg/mL (≈ 126 µM) | inhibition at 72 h, 50 ug/ml [3]: 52.6%

O=C(/C=C/c1ccccc1)Nc1nc(-c2ccc3sc4ccccc4c3c2)cs1
MIC [2]: 50 µg/mL (≈ 121 µM) | inhibition at 72 h, 50 ug/ml [3]: 68.6%

Nc1nc(-c2ccc3oc4ccccc4c3c2)cs1
MIC [2]: 1.56 µg/mL (≈ 5.86 µM) | inhibition at 72 h, 50 ug/ml [3]: 48.1%

O=C(/C=C/c1ccc(Br)cc1)Nc1nc(-c2ccc3oc4ccccc4c3c2)cs1
MIC [2]: 12.5 µg/mL (≈ 26.3 µM) | inhibition at 72 h, 50 ug/ml [3]: 68.6%

CC[C@@H](CO)NCCN[C@@H](CC)CO [ETHAMBUTOL]
MIC [2]: 3.13 µg/mL (≈ 15.3 µM)

NNC(=O)c1ccncc1 [ISONIAZID]
MIC [2]: 0.1 µg/mL (≈ 0.729 µM)

NC(=O)c1cnccn1 [PYRAZINAMIDE]
MIC [2]: 50 µg/mL (≈ 406 µM)
